Activity calls are given as the source filed them.
Assays:
[1] = target: T1, Phosphorylase b kinase gamma catalytic chain, liver/testis isoform (Homo sapiens, UniProt P15735)
T1 sequence (P15735 whole entry): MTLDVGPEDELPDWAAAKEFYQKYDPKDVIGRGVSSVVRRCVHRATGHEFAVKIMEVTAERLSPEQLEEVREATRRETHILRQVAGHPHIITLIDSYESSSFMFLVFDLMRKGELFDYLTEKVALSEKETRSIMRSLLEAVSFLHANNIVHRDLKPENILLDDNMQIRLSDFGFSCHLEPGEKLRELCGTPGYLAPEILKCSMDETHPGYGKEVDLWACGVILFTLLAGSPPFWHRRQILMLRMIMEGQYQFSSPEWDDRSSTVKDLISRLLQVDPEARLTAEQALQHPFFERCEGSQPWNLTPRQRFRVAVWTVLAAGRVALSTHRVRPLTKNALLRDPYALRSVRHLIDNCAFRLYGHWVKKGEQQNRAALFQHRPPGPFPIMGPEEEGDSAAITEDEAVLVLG

[2] = target: T2, Mitogen-activated protein kinase kinase kinase 6 (Homo sapiens, UniProt O95382)
T2 sequence (O95382 whole entry): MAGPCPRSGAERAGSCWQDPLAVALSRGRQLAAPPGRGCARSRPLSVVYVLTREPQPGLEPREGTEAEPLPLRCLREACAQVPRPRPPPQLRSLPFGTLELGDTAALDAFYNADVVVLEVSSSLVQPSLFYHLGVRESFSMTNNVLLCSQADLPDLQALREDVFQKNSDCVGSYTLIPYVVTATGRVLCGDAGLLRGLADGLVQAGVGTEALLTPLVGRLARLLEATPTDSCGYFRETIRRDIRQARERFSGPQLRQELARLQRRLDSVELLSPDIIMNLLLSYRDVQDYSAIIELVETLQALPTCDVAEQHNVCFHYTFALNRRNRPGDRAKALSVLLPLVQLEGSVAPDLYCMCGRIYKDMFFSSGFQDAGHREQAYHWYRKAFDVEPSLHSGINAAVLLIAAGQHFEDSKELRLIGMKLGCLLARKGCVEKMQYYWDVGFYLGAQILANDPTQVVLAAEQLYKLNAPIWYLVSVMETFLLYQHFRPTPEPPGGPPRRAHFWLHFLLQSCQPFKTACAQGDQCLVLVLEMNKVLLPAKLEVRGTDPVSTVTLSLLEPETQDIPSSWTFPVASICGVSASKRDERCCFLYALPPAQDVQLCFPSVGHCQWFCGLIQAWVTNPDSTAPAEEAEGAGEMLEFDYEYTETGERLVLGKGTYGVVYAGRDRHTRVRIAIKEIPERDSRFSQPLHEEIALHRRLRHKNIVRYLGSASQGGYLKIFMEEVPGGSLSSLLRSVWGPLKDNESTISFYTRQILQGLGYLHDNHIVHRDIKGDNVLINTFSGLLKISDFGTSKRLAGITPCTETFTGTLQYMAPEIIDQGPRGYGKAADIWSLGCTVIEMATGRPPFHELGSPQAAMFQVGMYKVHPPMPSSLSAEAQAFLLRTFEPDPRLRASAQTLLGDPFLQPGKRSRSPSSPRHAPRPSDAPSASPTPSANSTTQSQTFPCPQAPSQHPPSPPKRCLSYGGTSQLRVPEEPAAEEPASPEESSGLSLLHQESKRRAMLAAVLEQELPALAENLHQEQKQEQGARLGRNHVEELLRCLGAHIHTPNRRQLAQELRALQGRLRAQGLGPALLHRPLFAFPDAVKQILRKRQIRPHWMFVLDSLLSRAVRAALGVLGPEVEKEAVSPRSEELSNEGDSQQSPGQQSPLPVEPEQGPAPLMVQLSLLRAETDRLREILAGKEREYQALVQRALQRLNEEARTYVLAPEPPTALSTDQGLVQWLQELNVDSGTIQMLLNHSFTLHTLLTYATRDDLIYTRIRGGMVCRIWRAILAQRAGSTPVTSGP

[3] = target: T3, Very long-chain specific acyl-CoA dehydrogenase, mitochondrial (Homo sapiens, UniProt P49748)
T3 sequence (P49748 whole entry): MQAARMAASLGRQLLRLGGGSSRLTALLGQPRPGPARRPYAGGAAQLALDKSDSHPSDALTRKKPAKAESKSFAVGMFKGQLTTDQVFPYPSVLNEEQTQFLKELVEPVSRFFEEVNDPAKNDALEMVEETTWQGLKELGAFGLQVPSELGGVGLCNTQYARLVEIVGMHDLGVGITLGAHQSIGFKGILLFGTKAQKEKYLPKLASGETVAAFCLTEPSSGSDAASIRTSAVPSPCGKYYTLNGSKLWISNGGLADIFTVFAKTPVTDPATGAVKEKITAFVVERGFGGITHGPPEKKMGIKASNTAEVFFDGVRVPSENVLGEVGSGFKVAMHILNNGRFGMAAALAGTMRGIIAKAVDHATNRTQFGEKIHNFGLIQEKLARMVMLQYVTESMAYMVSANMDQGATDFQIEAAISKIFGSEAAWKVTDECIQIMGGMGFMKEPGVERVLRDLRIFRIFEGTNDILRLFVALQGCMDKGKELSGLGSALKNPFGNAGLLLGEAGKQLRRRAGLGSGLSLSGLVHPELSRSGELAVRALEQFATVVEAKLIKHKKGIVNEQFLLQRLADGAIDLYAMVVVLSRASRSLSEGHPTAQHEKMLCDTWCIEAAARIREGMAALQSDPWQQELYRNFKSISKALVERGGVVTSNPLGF

[4] = target: T4, Beta-adrenergic receptor kinase 1 (Homo sapiens, UniProt P25098)
T4 sequence (P25098 whole entry): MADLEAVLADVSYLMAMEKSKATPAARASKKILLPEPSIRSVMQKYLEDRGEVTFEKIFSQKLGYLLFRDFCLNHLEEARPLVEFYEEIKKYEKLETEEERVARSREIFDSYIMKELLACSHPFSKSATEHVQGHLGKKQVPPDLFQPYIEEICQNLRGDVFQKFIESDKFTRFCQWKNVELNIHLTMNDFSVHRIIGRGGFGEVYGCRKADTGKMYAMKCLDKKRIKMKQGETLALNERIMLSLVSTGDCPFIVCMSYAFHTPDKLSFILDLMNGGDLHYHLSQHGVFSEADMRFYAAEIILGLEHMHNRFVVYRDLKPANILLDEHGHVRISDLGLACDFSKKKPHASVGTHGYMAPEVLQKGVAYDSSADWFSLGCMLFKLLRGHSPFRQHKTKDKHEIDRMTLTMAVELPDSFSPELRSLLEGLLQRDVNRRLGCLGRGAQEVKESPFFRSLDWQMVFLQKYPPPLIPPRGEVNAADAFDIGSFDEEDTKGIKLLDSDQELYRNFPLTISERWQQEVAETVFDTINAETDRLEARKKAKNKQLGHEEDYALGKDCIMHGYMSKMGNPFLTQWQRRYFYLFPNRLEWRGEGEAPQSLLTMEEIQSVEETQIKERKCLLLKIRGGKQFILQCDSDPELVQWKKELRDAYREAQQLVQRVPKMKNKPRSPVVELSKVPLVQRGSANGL
Note: in the data inactive means no Kd found up to 30 µM.

Structure (SMILES)	Kd [1]	Kd [2]	Kd [3]	Kd [4]
CC(C)Nc1cc(-c2c[nH]c(C(=O)N[C@H](CO)c3cccc(Cl)c3)c2)c(Cl)cn1 [ULIXERTINIB]	> 30 µM (inactive)	> 30 µM (inactive)	> 30 µM (inactive)	> 30 µM (inactive)
COC(=O)[C@@]1(O)C[C@H]2O[C@]1(C)n1c3ccccc3c3c4c(c5c6ccccc6n2c5c31)C(=O)NC4 [K-252A]	3.26 µM (active)	0.335 µM (active)	> 30 µM (inactive)	> 30 µM (inactive)
COc1ccc(-c2ccc3c(N4CCOC[C@@H]4C)nc(N4CCOC[C@@H]4C)nc3n2)cc1CO [AZD-8055]	> 30 µM (inactive)	> 30 µM (inactive)	> 30 µM (inactive)	> 30 µM (inactive)
O=C(O)[C@]1(Cc2cccc(Nc3nccs3)n2)CC[C@@H](Oc2cccc(Cl)c2F)CC1 [MK-5108]	> 30 µM (inactive)	> 30 µM (inactive)	> 30 µM (inactive)	> 30 µM (inactive)
Cc1ccc(-n2nc(C(C)(C)C)cc2NC(=O)NCc2cc(F)ccc2Oc2ccc3c(cnn3CCO)c2)cc1 [PEXMETINIB]	> 30 µM (inactive)	> 30 µM (inactive)	> 30 µM (inactive)	> 30 µM (inactive)
COc1cc(CCc2cc(NC(=O)c3ccc(N4C[C@@H](C)N[C@@H](C)C4)cc3)n[nH]2)cc(OC)c1 [AZD-4547]	> 30 µM (inactive)	> 30 µM (inactive)	> 30 µM (inactive)	> 30 µM (inactive)

Other lines, results leading:

Kd [1]	Kd [2]	Kd [3]	Kd [4]	Structure (SMILES)
> 30 µM (inactive)	> 30 µM (inactive)	> 30 µM (inactive)	> 30 µM (inactive)	CNC(=O)c1ccc(C)c(-n2c(C)cc(OCc3ccc(F)cc3F)c(Br)c2=O)c1 [PH-797804]
> 30 µM (inactive)	> 30 µM (inactive)	> 30 µM (inactive)	> 30 µM (inactive)	Cc1ccc(NC(=O)c2ccc(CN3CC[C@H](N(C)C)C3)c(C(F)(F)F)c2)cc1Nc1nccc(-c2cncnc2)n1 [BAFETINIB]
> 30 µM (inactive)	> 30 µM (inactive)	> 30 µM (inactive)	> 30 µM (inactive)	CNC(=O)c1ccc(-c2cnc3ncc(Cc4ccc5ncccc5c4)n3n2)cc1F [CAPMATINIB]

Reference: ChEMBL document CHEMBL3991601, “The target landscape of clinical kinase drugs” (Science, 2017)
